# Results reported in publication PMC12499601 (Pulmonary pharmacology & therapeutics, 2024).
# Values joined by “and” are separate entries in the source; they are usually repeats but may differ in a detail not shown here. Equal entries are not always repeated. Where two headings read alike, the source gives them in different places.
# Experiments:
# [1] = format: in vivo, human; conditions: capillary plasma, pwCF, ivacaftor 150mg twice daily steady state, n = 8; for Cmax / half-life: human, oral, 150 mg
# HNEs, HBEs, and CFBEs = format: in vitro ADME, human; conditions: ALI cultures, 1000nM of Iva basolateral, 48 hours; for metabolite detected in apical or basolateral media: media prior to cell lysis (data not shown)
# 5-HT2C receptor = conditions: cited from earlier work
# β3-adrenergic receptor = conditions: cited from earlier work
# δ-opioid receptor = conditions: cited from earlier work
# dopamine transporter = conditions: cited from earlier work
# CYP3A4 = conditions: in vitro; cited from earlier work
# Metabolite:parent ratio = format: in vivo, human; conditions: capillary plasma, metabolite:Iva, 12 hour dosing interval
# 16HBE cells = assay: Uptake of metabolites into 16HBE cells at ALI, LC-MS/MS of cellular lysate; format: in vitro ADME, human; conditions: for mean concentration detected in the cells: 16HBE at ALI, 1000nM of the compound in basolateral media, 48 hours; for crossing of the plasma membrane of airway epithelial cells: 16HBE in vitro model
# [2] = pwCF; cited from earlier work
# nasal brushings lysate = conditions: pwCF; cited from earlier work
# CFTR = conditions: cited from earlier work
# [3] = system: human nasal epithelial cells; assay: Capillary plasma versus nasal epithelial cell concentrations; format: in vivo; conditions: nasal epithelial cell lysate of participants taking ivacaftor
# [4] = format: in vivo, human; conditions: plasma of a participant taking ivacaftor
Molecule,"Cavg, Mean (SD) [1]","Cavg, Median (min, max) [1]","Cmin, Mean (SD) [1]","Cmin, Median (min, max) [1]","Tmax, Median (min, max) [1]",effect on CYP3A4 activity (CYP3A4),"Cmax, Mean (SD) [1]","Cmax, Median (min, max) [1]","T1/2, Mean (SD) [1]","T1/2, Median (min, max) [1]","Tmax, Mean (SD) [1]",mean metabolite:parent ratio (MPR) (Metabolite:parent ratio),mean concentration detected in the cells (16HBE cells),crossing of the plasma membrane of airway epithelial cells (16HBE cells),"metabolite detected in cells treated with Iva (HNEs, HBEs, and CFBEs; cell lysate)","metabolite detected in apical or basolateral media (HNEs, HBEs, and CFBEs)","Cavg, venous plasma [2]",activity relative to parent Iva (CFTR),potentiation activity relative to that of Iva (CFTR),other results
"CC(C)(C)c1cc(C(C)(C)C)c(NC(=O)c2c[nH]c3ccccc3c2=O)cc1O [Iva, ivacaftor]",532 (343) ng/mL,"416(221, 1206) ng/mL",352 (245) ng/mL,"287 (113, 813) ng/mL","5 (4, 6) h",reduce CYP3A4 activity,,,,,,,,,,,,,,"Cmax ([1]; Mean (SD)): 744 ng/mL; Cmax ([1]; Median (min, max)): 552 ng/mL; half-life ([1]; T1/2, Mean (SD)): 7.9 h; half-life ([1]; T1/2, Median (min, max)): 6.7 h; parent compound detected in cells (HNEs, HBEs, and CFBEs; cell lysate): detected in all the cell types; affinity (5-HT2C receptor): significant affinity; affinity (β3-adrenergic receptor): significant affinity; affinity (δ-opioid receptor): significant affinity; affinity (dopamine transporter): significant affinity"
"CC(C)(C)c1cc(C(C)(C)CO)c(O)cc1NC(=O)c1c[nH]c2ccccc2c1=O [M1-Iva, hydroxymethyl ivacaftor]",726 (365) ng/mL,"607 (256, 1170) ng/mL",501 (228) ng/mL,"475 (55, 839) ng/mL","5 (4, 6) h",stronger inhibition,1036 (520) ng/mL,"913 (402, 1750) ng/mL",9.2 (4.29) h,"8.7 (3.35, 16.4) h",5.3 (0.7) h,1.5,1000 ng/ml and 2.5 μM,readily enters the airway epithelial cells,No M1-Iva and M6-Iva were detected,no M1-Iva and M6-Iva were detected,3156 ng/mL,1/6,1/6,mean concentration in nasal brushings lysate (nasal brushings lysate): 696 ng/mL
"CC(C)(C)c1cc(C(C)(C)C(=O)O)c(O)cc1NC(=O)c1c[nH]c2ccccc2c1=O [M6-Iva, ivacaftor carboxylate]",797 (430) ng/mL,"842 (231, 1418) ng/mL",522 (365) ng/mL,"527 (5.8, 1070) ng/mL","8 (4, 10) h",,927 (456) ng/mL,"918 (265, 1630) ng/mL",8.8 (6.6) h,"8.8 (4.2, 13.5) h",6.9 (3.7) h,1.6,15 ng/ml and 0.04 μM,does not readily cross the plasma membrane,No M1-Iva and M6-Iva were detected,no M1-Iva and M6-Iva were detected,3821 ng/mL,inactive metabolite,1/50,"detection in cellular samples [3]: found only in one cellular sample; average concentration in the cellular lysate (16HBE cells; 16HBE, 5000nM of the compound, 48 hours (data not shown)): 81 ng/ml and 0.19 μM"
ivacaftor hydrate [Iva-hydrate],,,,,,,,,,,,,,,,,,,,detection in plasma (qualitative) [4]: small peaks
